Data taken from article PMC10176470, “Engaging a Non-catalytic Cysteine Residue Drives Potent and Selective Inhibition of Caspase-6” (Journal of the American Chemical Society, 2023).
Read-outs that look alike come from different tables or passages of the source.

Assays:
[1] = molecular target: T1, proteins of HEK293T cells transiently overexpressing caspase-6 (Homo sapiens, UniProt P30519); format: cell-based; conditions: protein HMOX2 (P30519)
T1 sequence (P30519 1-316): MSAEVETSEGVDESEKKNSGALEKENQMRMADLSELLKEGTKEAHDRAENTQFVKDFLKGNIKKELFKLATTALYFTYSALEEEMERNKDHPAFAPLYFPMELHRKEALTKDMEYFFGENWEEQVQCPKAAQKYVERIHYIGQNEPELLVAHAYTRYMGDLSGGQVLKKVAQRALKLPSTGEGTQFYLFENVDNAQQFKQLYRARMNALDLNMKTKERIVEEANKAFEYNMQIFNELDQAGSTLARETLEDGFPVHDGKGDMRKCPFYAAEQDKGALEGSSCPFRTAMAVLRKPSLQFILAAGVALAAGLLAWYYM

[2] = molecular target: proteins of HEK293T cells transiently overexpressing caspase-6 (Homo sapiens, UniProt P37802); format: cell-based; conditions: exp_ref Probe; protein TAGLN2 (P37802); analysis C6
[3] = molecular target: proteins of HEK293T cells transiently overexpressing caspase-6 (Homo sapiens, UniProt Q9NZI8); format: cell-based; conditions: Probe; protein IGF2BP1 Q9NZI8
[4] = molecular target: proteins of HEK293T cells transiently overexpressing caspase-6 (Homo sapiens, UniProt P61247); format: cell-based; conditions: protein RPS3A (P61247)
[5] = molecular target: proteins of HEK293T cells transiently overexpressing caspase-6 (Homo sapiens, UniProt P07814); format: cell-based; conditions: exp_ref Probe; protein EPRS (P07814); analysis C6
[6] = molecular target: proteins of HEK293T cells transiently overexpressing caspase-6 (Homo sapiens, UniProt O94919); format: cell-based; conditions: exp_ref Probe; protein ENDOD1 (O94919); analysis C6
[7] = molecular target: proteins of HEK293T cells transiently overexpressing caspase-6 (Homo sapiens, UniProt P30153); format: cell-based; conditions: exp_ref Probe; protein PPP2R1A (P30153); analysis C6
[8] = molecular target: proteins of HEK293T cells transiently overexpressing caspase-6 (Homo sapiens, UniProt P14625); format: cell-based; conditions: exp_ref Probe; protein HSP90B1 (P14625); analysis C6
[9] = molecular target: proteins of HEK293T cells transiently overexpressing caspase-6 (Homo sapiens, UniProt P51991); format: cell-based; conditions: exp_ref Probe; protein HNRNPA3 (P51991); analysis C6
[10] = molecular target: T2, proteins of HEK293T cells transiently overexpressing caspase-6 (Homo sapiens, UniProt P05165); format: cell-based
T2 sequence (P05165 53-728): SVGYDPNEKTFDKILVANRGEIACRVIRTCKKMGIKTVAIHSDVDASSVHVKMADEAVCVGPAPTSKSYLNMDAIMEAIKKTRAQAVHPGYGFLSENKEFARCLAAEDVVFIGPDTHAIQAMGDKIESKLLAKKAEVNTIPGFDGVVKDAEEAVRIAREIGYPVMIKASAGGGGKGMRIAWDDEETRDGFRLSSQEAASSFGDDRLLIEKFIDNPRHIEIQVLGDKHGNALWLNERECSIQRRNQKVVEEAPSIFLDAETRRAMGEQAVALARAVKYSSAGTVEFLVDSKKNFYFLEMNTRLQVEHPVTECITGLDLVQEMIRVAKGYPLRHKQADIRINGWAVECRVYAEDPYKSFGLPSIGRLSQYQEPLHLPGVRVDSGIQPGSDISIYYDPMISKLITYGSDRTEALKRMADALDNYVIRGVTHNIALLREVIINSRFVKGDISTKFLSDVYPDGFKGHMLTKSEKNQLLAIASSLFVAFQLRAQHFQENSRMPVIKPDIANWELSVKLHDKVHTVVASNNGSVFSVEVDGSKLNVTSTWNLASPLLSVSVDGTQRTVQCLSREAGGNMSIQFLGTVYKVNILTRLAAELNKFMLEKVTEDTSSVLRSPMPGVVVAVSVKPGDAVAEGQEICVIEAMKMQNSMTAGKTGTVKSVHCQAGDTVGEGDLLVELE

[11] = molecular target: proteins of HEK293T cells transiently overexpressing caspase-6 (Homo sapiens, UniProt P16615); format: cell-based; conditions: protein ATP2A2 (P16615)
[12] = molecular target: proteins of HEK293T cells transiently overexpressing caspase-6 (Homo sapiens, UniProt Q96F25); format: cell-based; conditions: Probe; protein ALG14 Q96F25
[13] = molecular target: proteins of HEK293T cells transiently overexpressing caspase-6 (Homo sapiens, UniProt P00492); format: cell-based; conditions: Probe; protein HPRT1 P00492
[14] = molecular target: proteins of HEK293T cells transiently overexpressing caspase-6 (Homo sapiens, UniProt Q9UJU6); format: cell-based; conditions: Probe; protein DBNL Q9UJU6
caspase-6 = caspase-6 (Homo sapiens, UniProt P55212); experiment: biochemical
Description: Caspase-6 enzyme assay: The in vitro enzymatic caspase-6 assays utilize synthetic tetrapeptide
substrates labeled with either Rhodamine110 (R110) or 7-Amino-4-(trifluoromethyl)coumarin (AFC)
at the P1 aspartic acid (Asp) residue, as described.3 Briefly, assays were performed in 384-well plates
consisting of caspase-6, VEID-Rh110 or Ac-VEID-AFC and indicated concentration of inhibitor or
DMSO in assay buffer (50 mM HEPES pH 8.0, 100 mM NaCl, 1 mM EDTA, and 500 M ME).
All inhibitors were serially diluted in 100% DMSO prior to dilution in assay buffer and transfer to
assay plate, for a final DMSO concentration of 1%. Compound and protein were preincubated for 15 minutes prior to addition of substrate. The reaction plate was incubated at room temperature for 30
minutes and then read on an Envision (Perkin Elmer) fluorescent plate reader at excitation/emission
wavelengths of 485/535 nm (R110) or 395/495 nm (AFC). Data were processed to generate dose-
response curves and analyzed using a nonlinear curve fit with variable slope in Prism software

[15] = tested on: lamin A cleavage by caspase-6 in SK-N-AS cells; experiment: Lamin cleavage assay (in-cell western after staurosporine induction); format: cell-based; conditions: Homo sapiens, 1 h compound then staurosporine 3 h
Description: This assay measured lamin A cleavage under staurosporine-induced caspase activation; while staurosporine activates all executioner caspases, lamin A cleavage monitors only the activity of C6. After 1 h of preincubation with the compound and 3 h of incubation with staurosporine, lamin A cleavage was measured by in-cell western.
Inhibition of lamin A cleavage in SK-N-AS cells after staurosporine induction of caspases. Cells were treated with the indicated compound for 1 h before the addition of 10 μM staurosporine for 4 h. Error bars indicate the standard deviation from n = 4 replicate samples.
serves as a useful target-engagement assay in cells. We used the procedure of Mintz, et al, with the following modifications: SK-N-AS cells were seeded at 10,000 cells/well in black clear bottom 384-
well plates coated with poly-D-lysine and allowed to adhere overnight. Wells were treated with
varying doses of casapase-6 inhibitor, from 5 µM – 0.1 nM in 2-fold dilutions. After one hour, cells
were treated with 10 µM staurosporine to induce apoptosis and activation of multiple caspases. 3
hours after staurosporine addition, cells were fixed and permeabilized before in-cell westerns were
performed, as described.9

proteins of HEK293T cells transiently overexpressing caspase-6 (Homo sapiens, UniProt P16615), sequence (P16615 whole entry): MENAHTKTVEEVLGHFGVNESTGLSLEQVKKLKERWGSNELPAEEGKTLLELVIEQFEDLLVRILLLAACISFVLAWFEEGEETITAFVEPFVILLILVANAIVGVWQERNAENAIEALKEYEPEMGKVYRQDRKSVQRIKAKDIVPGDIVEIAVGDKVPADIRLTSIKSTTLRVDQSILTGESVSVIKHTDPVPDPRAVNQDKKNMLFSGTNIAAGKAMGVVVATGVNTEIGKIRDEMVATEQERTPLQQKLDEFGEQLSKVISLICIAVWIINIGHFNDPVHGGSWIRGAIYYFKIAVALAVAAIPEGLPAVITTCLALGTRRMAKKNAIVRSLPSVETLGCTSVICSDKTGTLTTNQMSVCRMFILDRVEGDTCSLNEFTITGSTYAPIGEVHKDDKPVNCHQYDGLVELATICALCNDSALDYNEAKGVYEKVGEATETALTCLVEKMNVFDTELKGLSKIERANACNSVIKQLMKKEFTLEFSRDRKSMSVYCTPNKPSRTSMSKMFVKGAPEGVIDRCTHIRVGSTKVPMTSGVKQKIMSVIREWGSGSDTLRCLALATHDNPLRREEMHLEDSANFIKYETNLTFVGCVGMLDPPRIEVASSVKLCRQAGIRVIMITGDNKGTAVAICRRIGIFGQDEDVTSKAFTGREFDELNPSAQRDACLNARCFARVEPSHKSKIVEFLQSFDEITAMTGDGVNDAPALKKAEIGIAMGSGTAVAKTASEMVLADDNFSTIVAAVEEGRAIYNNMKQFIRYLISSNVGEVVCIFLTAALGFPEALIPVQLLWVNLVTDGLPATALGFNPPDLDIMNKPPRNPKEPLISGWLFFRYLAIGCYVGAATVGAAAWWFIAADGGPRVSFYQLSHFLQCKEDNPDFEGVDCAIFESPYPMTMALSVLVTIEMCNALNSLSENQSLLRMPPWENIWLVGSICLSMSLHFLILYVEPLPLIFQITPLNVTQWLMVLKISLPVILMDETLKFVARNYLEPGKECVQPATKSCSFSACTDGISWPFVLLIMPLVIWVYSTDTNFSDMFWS
proteins of HEK293T cells transiently overexpressing caspase-6 (Homo sapiens, UniProt P00492), sequence (P00492 whole entry): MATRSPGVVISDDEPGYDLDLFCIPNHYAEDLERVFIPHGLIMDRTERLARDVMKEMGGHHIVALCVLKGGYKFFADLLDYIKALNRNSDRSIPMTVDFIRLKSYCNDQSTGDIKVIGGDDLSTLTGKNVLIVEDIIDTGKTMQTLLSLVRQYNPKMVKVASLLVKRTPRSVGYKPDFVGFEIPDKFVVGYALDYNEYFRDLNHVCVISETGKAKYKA
proteins of HEK293T cells transiently overexpressing caspase-6 (Homo sapiens, UniProt Q9NZI8), sequence (Q9NZI8 whole entry): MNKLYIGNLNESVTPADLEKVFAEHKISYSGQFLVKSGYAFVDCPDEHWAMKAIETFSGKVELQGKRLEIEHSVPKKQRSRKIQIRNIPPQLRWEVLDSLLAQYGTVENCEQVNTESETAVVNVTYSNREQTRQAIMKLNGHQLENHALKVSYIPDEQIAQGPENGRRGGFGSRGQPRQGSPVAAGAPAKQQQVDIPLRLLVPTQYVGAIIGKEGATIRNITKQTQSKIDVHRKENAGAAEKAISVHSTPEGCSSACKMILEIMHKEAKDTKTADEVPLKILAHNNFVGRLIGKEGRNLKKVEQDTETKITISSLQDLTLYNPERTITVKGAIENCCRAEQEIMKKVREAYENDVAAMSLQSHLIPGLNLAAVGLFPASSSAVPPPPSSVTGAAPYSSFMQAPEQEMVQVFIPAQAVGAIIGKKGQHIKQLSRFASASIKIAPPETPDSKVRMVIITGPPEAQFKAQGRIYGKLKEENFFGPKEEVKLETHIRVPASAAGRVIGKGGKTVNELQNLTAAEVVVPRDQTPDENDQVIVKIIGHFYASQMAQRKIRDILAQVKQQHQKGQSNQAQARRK
proteins of HEK293T cells transiently overexpressing caspase-6 (Homo sapiens, UniProt P30153), sequence (P30153 whole entry): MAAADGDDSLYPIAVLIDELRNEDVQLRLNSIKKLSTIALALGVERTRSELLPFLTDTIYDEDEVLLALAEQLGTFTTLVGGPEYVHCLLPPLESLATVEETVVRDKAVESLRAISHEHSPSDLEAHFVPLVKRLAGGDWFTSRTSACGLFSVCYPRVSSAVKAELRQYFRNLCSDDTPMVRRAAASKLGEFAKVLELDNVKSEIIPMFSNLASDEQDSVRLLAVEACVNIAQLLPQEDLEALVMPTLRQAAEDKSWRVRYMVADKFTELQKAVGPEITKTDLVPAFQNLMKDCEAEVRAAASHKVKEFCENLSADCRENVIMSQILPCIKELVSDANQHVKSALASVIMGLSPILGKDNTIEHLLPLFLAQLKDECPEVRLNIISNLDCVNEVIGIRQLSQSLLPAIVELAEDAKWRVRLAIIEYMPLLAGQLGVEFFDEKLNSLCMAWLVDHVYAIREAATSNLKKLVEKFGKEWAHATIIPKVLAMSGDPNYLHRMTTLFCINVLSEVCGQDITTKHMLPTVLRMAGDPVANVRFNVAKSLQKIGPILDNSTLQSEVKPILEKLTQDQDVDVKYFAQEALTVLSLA
proteins of HEK293T cells transiently overexpressing caspase-6 (Homo sapiens, UniProt P14625), sequence (P14625 22-803): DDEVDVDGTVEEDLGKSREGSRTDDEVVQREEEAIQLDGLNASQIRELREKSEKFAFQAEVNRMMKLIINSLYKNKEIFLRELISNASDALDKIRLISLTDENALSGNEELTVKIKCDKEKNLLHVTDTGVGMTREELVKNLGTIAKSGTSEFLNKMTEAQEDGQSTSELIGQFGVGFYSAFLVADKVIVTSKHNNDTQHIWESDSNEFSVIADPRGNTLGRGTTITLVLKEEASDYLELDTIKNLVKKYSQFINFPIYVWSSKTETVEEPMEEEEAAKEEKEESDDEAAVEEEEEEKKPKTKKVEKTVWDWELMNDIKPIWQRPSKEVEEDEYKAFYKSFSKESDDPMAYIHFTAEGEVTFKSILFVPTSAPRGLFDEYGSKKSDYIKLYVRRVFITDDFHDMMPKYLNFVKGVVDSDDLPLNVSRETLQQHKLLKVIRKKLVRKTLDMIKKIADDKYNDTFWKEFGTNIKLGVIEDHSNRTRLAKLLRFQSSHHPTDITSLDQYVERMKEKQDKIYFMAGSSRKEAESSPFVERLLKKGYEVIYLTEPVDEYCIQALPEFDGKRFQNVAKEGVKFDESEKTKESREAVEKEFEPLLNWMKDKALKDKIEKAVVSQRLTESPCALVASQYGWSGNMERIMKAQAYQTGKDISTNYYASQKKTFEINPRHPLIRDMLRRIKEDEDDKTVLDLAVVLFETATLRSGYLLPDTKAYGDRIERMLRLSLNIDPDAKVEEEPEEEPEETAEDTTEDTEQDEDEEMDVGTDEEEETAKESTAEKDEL
proteins of HEK293T cells transiently overexpressing caspase-6 (Homo sapiens, UniProt P07814), sequence (P07814 whole entry): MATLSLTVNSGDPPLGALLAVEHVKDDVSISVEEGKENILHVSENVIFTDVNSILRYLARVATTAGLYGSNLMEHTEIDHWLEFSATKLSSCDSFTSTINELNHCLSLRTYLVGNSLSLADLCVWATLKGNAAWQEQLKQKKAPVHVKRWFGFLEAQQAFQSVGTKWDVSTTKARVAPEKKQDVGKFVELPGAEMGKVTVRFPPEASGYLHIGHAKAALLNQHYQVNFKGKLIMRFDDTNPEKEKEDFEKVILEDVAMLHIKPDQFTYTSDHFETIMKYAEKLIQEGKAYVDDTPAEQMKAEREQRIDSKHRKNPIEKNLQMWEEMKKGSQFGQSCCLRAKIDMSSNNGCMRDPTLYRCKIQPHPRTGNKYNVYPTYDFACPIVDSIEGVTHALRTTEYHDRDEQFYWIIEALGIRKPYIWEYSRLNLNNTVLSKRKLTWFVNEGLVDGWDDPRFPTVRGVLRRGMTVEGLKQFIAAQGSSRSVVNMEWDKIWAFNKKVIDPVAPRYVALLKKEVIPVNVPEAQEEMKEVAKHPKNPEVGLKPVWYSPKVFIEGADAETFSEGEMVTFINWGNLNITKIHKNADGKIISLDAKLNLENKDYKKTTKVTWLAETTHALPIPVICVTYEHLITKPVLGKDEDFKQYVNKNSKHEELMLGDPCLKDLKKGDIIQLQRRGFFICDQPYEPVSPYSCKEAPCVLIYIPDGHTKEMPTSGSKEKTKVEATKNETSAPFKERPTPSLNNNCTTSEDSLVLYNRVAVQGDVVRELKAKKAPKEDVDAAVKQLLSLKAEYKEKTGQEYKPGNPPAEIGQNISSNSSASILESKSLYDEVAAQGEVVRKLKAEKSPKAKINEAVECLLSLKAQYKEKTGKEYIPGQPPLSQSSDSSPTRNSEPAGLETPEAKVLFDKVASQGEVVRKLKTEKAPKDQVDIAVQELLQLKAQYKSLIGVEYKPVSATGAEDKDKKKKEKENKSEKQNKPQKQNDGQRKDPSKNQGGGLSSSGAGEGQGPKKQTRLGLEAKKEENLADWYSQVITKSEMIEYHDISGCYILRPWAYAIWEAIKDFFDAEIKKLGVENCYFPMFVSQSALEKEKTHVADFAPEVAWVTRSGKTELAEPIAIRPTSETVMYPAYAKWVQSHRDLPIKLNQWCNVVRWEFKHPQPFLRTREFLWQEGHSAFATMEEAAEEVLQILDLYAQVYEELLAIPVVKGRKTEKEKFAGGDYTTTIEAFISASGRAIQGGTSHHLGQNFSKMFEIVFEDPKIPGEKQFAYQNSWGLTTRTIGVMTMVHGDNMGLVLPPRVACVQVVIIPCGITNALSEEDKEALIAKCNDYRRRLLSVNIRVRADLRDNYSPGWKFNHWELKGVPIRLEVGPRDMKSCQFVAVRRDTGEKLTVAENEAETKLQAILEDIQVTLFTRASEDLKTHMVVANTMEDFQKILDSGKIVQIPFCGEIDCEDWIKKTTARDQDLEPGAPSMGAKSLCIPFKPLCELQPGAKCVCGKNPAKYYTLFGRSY
caspase-6, sequence (P55212 194-293): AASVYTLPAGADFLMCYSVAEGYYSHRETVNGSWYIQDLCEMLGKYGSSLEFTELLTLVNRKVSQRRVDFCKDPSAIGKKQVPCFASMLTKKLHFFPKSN
caspase-6, sequence (P55212 30-179): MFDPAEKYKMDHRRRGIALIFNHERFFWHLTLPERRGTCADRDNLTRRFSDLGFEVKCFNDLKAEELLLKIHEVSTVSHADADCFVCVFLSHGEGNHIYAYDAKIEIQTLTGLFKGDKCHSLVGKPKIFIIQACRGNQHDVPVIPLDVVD

**Q.** Which enrich.exp.med.lin [1] does the source give for `C#CCOc1ccc([C@@H]2C[C@@H](C(=O)Nc3ccc(OC(F)(F)F)cc3)CN(S(=O)(=O)C=C)C2)cc1` (relative stereo) [13-t] here?
**A.** The enrich.exp.med.lin was 4.772.

**Q.** And the enrich.exp.med.log2 [1]?
**A.** Its enrich.exp.med.log2 is 2.255.

**Q.** What about the enrich.exp.med.lin ([1]; Expt Probe, analysis C6) of the same compound?
**A.** The enrich.exp.med.lin was 4.772.

**Q.** And the enrich.exp.med.log2 ([1]; Expt Probe, analysis C6)?
**A.** Its enrich.exp.med.log2 is 2.255.

**Q.** What about the enrich.exp.med ([1]; exp_ref Probe, analysis C6) of the same compound?
**A.** Its enrich.exp.med is 2.255.

**Q.** What about the enrich.exp.med [2] of the same compound?
**A.** Its enrich.exp.med is 0.7525.

**Q.** And the enrich.exp.med [3]?
**A.** The enrich.exp.med was -0.7898.

**Q.** And the enrich.exp.med ([4]; exp_ref Probe, analysis C6)?
**A.** The enrich.exp.med was 1.085.

**Q.** What about the enrich.exp.med.lin [4] of the same compound?
**A.** The enrich.exp.med.lin was 2.121.

**Q.** And the enrich.exp.med.log2 [4]?
**A.** The enrich.exp.med.log2 was 1.085.

**Q.** And the enrich.exp.med [5]?
**A.** The enrich.exp.med was 0.5173.

**Q.** What about the enrich.exp.med [6] of the same compound?
**A.** Its enrich.exp.med is -0.1243.

**Q.** And the enrich.exp.med [7]?
**A.** The enrich.exp.med was 0.444.

**Q.** And the enrich.exp.med [8]?
**A.** The enrich.exp.med was 0.4413.

**Q.** What about the enrich.exp.med [9] of the same compound?
**A.** The enrich.exp.med was 0.2112.

**Q.** What about the enrich.exp.med ([10]; Probe, protein PCCA P05165) of the same compound?
**A.** The enrich.exp.med was -2.194.

**Q.** And the enrich.exp.med.lin ([10]; protein PCCA (P05165))?
**A.** The enrich.exp.med.lin was 0.2185.

**Q.** And the enrich.exp.med.log2 ([10]; protein PCCA (P05165))?
**A.** Its enrich.exp.med.log2 is -2.194.

**Q.** And the enrich.exp.med.lin [11]?
**A.** The enrich.exp.med.lin was 2.861.

**Q.** And the enrich.exp.med.log2 [11]?
**A.** The enrich.exp.med.log2 was 1.516.

**Q.** And the enrich.exp.med ([11]; exp_ref Probe, analysis C6)?
**A.** The enrich.exp.med was 1.516.

**Q.** What about the enrich.exp.med [12] of the same compound?
**A.** Its enrich.exp.med is -1.074.

**Q.** And the enrich.exp.med [13]?
**A.** Its enrich.exp.med is -1.112.

**Q.** And the enrich.exp.med [14]?
**A.** Its enrich.exp.med is -0.5155.

**Q.** And the IC50 (caspase-6)?
**A.** Its IC50 is 48 ± 2 nM.

**Q.** For `C=CS(=O)(=O)N1C[C@H](C(=O)Nc2ccc(OC(F)(F)F)cc2)C[C@@H](c2ccccc2)C1` [3a], which IC50 [15] is on record?
**A.** The IC50 was 170 ± 4 nM.
